Test results taken from the supplement of paper PMC10307832.

Legend:
Assay in all cases: relative viability (nuclei count vs DMSO), 5 days (fraction); higher = more cells survive
ABC-1 = tested on: ABC-1
Method in brief: (§1)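 Relative viability was taken as the ratio of nuclei in treated wells to nuclei in vehicle wells. Lung cancer cell lines in 1536-well plates received compounds by pin tool one day after seeding, either one drug alone or a fixed anchor-drug dose plus five library-drug doses (not always all listed) in √10 steps. Nuclei were counted on 4× images after 5 days of treatment, and values are medians of duplicate plates.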

BEN = tested on: BEN
Method in brief: as §1

EPLC-272H = tested on: EPLC-272H
Method in brief: as §1

HCC-827 = tested on: HCC-827
Method in brief: as §1

HOP-62 = tested on: HOP-62
Method in brief: as §1

LU99A = tested on: LU99A
Method in brief: as §1

NCI-H1355 = tested on: NCI-H1355
Method in brief: as §1

NCI-H1666 = tested on: NCI-H1666
Method in brief: as §1

NCI-H1792 = tested on: NCI-H1792
Method in brief: as §1

NCI-H1975 = tested on: NCI-H1975
Method in brief: as §1

NCI-H2170 = tested on: NCI-H2170
Method in brief: as §1

NCI-H23 = tested on: NCI-H23
Method in brief: as §1

NCI-H2405 = tested on: NCI-H2405
Method in brief: as §1

NCI-H3122 = tested on: NCI-H3122
Method in brief: as §1

NCI-H322M = tested on: NCI-H322M
Method in brief: as §1

NCI-H358 = tested on: NCI-H358
Method in brief: as §1

NCI-H520 = tested on: NCI-H520
Method in brief: as §1

NCI-H596 = tested on: NCI-H596
Method in brief: as §1

NCI-H647 = tested on: NCI-H647
Method in brief: as §1

NCI-H727 = tested on: NCI-H727
Method in brief: as §1

NCI-H838 = tested on: NCI-H838
Method in brief: as §1

PC-14 = tested on: PC-14
Method in brief: as §1

UMC-11 = tested on: UMC-11
Method in brief: as §1

`Cc1cnc(-c2cnc(NCCNc3ccc(C#N)cn3)nc2-c2ccc(Cl)cc2Cl)[nH]1` + COc1cccc2cc(-c3nc([C@H]4CC[C@H](C(=O)O)CC4)n4ncnc(N)c34)[nH]c12 [OSI-027] (partner 0.5 µM) was tested, and the relative viability (ABC-1; first compound 0.08 µM) was 0.751, the relative viability (ABC-1; first compound 0.253 µM) was 0.411 and the relative viability (ABC-1; first compound 0.8 µM) was 0.553. For the same compound, the relative viability (ABC-1; first compound 2.53 µM) was 0.649, the relative viability (BEN; first compound 0.08 µM) was 0.352 and the relative viability (BEN; first compound 0.253 µM) was 0.307. For the same compound, the relative viability (BEN; first compound 0.8 µM) was 0.324, the relative viability (BEN; first compound 2.53 µM) was 0.371 and the relative viability (EPLC-272H; first compound 0.08 µM) was 0.342. It also gave a relative viability (EPLC-272H; first compound 0.253 µM) of 0.261, a relative viability (EPLC-272H; first compound 0.8 µM) of 0.304 and a relative viability (EPLC-272H; first compound 2.53 µM) of 0.317. The relative viability (HCC-827; first compound 0.08 µM) was 0.903, the relative viability (HCC-827; first compound 0.8 µM) was 0.814 and the relative viability (HCC-827; first compound 2.53 µM) was 0.759. For the same compound, the relative viability (HOP-62; first compound 0.08 µM) was 0.914, the relative viability (HOP-62; first compound 0.253 µM) was 0.813 and the relative viability (HOP-62; first compound 0.8 µM) was 0.972. It also gave a relative viability (HOP-62; first compound 2.53 µM) of 0.795, a relative viability (LU99A; first compound 0.08 µM) of 0.291 and a relative viability (LU99A; first compound 0.253 µM) of 0.304. For the same compound, the relative viability (LU99A; first compound 0.8 µM) was 0.327, the relative viability (LU99A; first compound 2.53 µM) was 0.401 and the relative viability (NCI-H1355; first compound 0.08 µM) was 0.404. For the same compound, the relative viability (NCI-H1355; first compound 0.253 µM) was 0.434, the relative viability (NCI-H1355; first compound 0.8 µM) was 0.395 and the relative viability (NCI-H1355; first compound 2.53 µM) was 0.439. It also gave a relative viability (NCI-H1666; first compound 0.08 µM) of 0.828, a relative viability (NCI-H1666; first compound 0.253 µM) of 0.77 and a relative viability (NCI-H1666; first compound 0.8 µM) of 0.894. It also gave a relative viability (NCI-H1666; first compound 2.53 µM) of 0.903, a relative viability (NCI-H1792; first compound 0.08 µM) of 0.866 and a relative viability (NCI-H1792; first compound 0.253 µM) of 0.715. For the same compound, the relative viability (NCI-H1792; first compound 0.8 µM) was 0.618, the relative viability (NCI-H1792; first compound 2.53 µM) was 0.666 and the relative viability (NCI-H1975; first compound 0.08 µM) was 0.839. For the same compound, the relative viability (NCI-H1975; first compound 0.253 µM) was 0.647, the relative viability (NCI-H1975; first compound 0.8 µM) was 0.6 and the relative viability (NCI-H1975; first compound 2.53 µM) was 0.399. The relative viability (NCI-H2170; first compound 0.08 µM) was 0.732, the relative viability (NCI-H2170; first compound 0.253 µM) was 0.554 and the relative viability (NCI-H2170; first compound 0.8 µM) was 0.705. For the same compound, the relative viability (NCI-H2170; first compound 2.53 µM) was 0.609, the relative viability (NCI-H23; first compound 0.08 µM) was 0.592 and the relative viability (NCI-H23; first compound 0.253 µM) was 0.539. It also gave a relative viability (NCI-H23; first compound 0.8 µM) of 0.58, a relative viability (NCI-H23; first compound 2.53 µM) of 0.678 and a relative viability (NCI-H2405; first compound 0.08 µM) of 0.655. For the same compound, the relative viability (NCI-H2405; first compound 0.253 µM) was 0.654, the relative viability (NCI-H2405; first compound 0.8 µM) was 0.654 and the relative viability (NCI-H2405; first compound 2.53 µM) was 0.615. The relative viability (NCI-H3122; first compound 0.08 µM) was 1.4, the relative viability (NCI-H3122; first compound 0.8 µM) was 1.05 and the relative viability (NCI-H3122; first compound 2.53 µM) was 0.967. It also gave a relative viability (NCI-H322M; first compound 0.08 µM) of 0.641, a relative viability (NCI-H322M; first compound 0.253 µM) of 0.658 and a relative viability (NCI-H322M; first compound 0.8 µM) of 0.45. It also gave a relative viability (NCI-H322M; first compound 2.53 µM) of 1.3, a relative viability (NCI-H358; first compound 0.08 µM) of 0.843 and a relative viability (NCI-H358; first compound 0.253 µM) of 0.647. The relative viability (NCI-H358; first compound 0.8 µM) was 0.771, the relative viability (NCI-H358; first compound 2.53 µM) was 0.627 and the relative viability (NCI-H520; first compound 0.08 µM) was 0.24. It also gave a relative viability (NCI-H520; first compound 0.253 µM) of 0.288, a relative viability (NCI-H520; first compound 0.8 µM) of 0.274 and a relative viability (NCI-H520; first compound 2.53 µM) of 0.28. It also gave a relative viability (NCI-H596; first compound 0.08 µM) of 0.846, a relative viability (NCI-H596; first compound 0.253 µM) of 0.73 and a relative viability (NCI-H596; first compound 0.8 µM) of 0.483. It also gave a relative viability (NCI-H596; first compound 2.53 µM) of 0.668, a relative viability (NCI-H647; first compound 0.08 µM) of 0.752 and a relative viability (NCI-H647; first compound 0.253 µM) of 0.512. It also gave a relative viability (NCI-H647; first compound 0.8 µM) of 0.725, a relative viability (NCI-H647; first compound 2.53 µM) of 0.55 and a relative viability (NCI-H727; first compound 0.08 µM) of 0.588. It also gave a relative viability (NCI-H727; first compound 0.253 µM) of 0.589, a relative viability (NCI-H727; first compound 0.8 µM) of 0.518 and a relative viability (NCI-H727; first compound 2.53 µM) of 0.442. The relative viability (NCI-H838; first compound 0.08 µM) was 0.433, the relative viability (NCI-H838; first compound 0.253 µM) was 0.424 and the relative viability (NCI-H838; first compound 0.8 µM) was 0.46. For the same compound, the relative viability (NCI-H838; first compound 2.53 µM) was 0.846, the relative viability (PC-14; first compound 0.08 µM) was 1.21 and the relative viability (PC-14; first compound 0.253 µM) was 0.673. It also gave a relative viability (PC-14; first compound 0.8 µM) of 0.76, a relative viability (PC-14; first compound 2.53 µM) of 0.643 and a relative viability (UMC-11; first compound 0.08 µM) of 0.594. It also gave a relative viability (UMC-11; first compound 0.253 µM) of 0.477 and a relative viability (UMC-11; first compound 0.8 µM) of 0.591.
